Data: patent US12077503B2, “Substituted cyclic amides and their use as herbicides” (FMC CORPORATION, priority 2015, dated 2024)

Columns and labels:
Type in all cases: in vivo
[1] = system: velvetleaf (Abutilon theophrasti); assay: Test G Pre-Emergence Protocol; settings: Abutilon theophrasti, pre-emergence, 312 h, evaluated after 13 days; for pest or weed control at 15.625 g/ha: 15.625 g ai/ha; for pest or weed control at 15.625 g/ha / pest or weed control at 250 g/ha: read-out: Velvetleaf damage rating (100=total damage to plant; 0=no damage to plant); for pest or weed control at 62.5 g/ha: 62.5 g ai/ha, 100=total damage to plant, 0=no damage to plant, read-out: plant damage rating, Velvetleaf; for pest or weed control at 250 g/ha: 250 g ai/ha
How it was run: (§1)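 Visual injury (0–100) at day 13 after a single pre-emergence spray. Rates: 15.625, 62.5, 250 g/ha in acetone–water 50:50 with 0.5% Tween 20. Growth conditions: 24/16° C, 14 h light, 65% humidity.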

[2] = system: giant foxtail (Setaria faberi); assay: Test G Pre-Emergence Protocol; settings: Setaria faberi, pre-emergence, 312 h, evaluated after 13 days; for pest or weed control at 15.625 g/ha: 15.625 g ai/ha; for pest or weed control at 15.625 g/ha / pest or weed control at 250 g/ha: read-out: Foxtail, Giant damage rating (100=total damage to plant; 0=no damage to plant); for pest or weed control at 62.5 g/ha: 62.5 g ai/ha, 100=total damage to plant, 0=no damage to plant, read-out: plant damage rating, Foxtail, Giant; for pest or weed control at 250 g/ha: 250 g ai/ha
How it was run: as §1

[3] = system: redroot pigweed (Amaranthus retroflexus); assay: Test G Pre-Emergence Protocol; settings: Amaranthus retroflexus, pre-emergence, 312 h, evaluated after 13 days; for pest or weed control at 15.625 g/ha: 15.625 g ai/ha; for pest or weed control at 15.625 g/ha / pest or weed control at 250 g/ha: read-out: Pigweed, Redroot damage rating (100=total damage to plant; 0=no damage to plant); for pest or weed control at 62.5 g/ha: 62.5 g ai/ha, 100=total damage to plant, 0=no damage to plant, read-out: plant damage rating, Pigweed, Redroot; for pest or weed control at 250 g/ha: 250 g ai/ha
How it was run: as §1

[4] = system: barnyardgrass (Echinochloa crus-galli); assay: Test G Pre-Emergence Protocol; settings: Echinochloa crus-galli, pre-emergence, 312 h, evaluated after 13 days; for pest or weed control at 15.625 g/ha: 15.625 g ai/ha, read-out: Barnyard grass damage rating (100=total damage to plant; 0=no damage to plant); for pest or weed control at 62.5 g/ha: 62.5 g ai/ha, 100=total damage to plant, 0=no damage to plant, read-out: plant damage rating, Barnyardgrass; for pest or weed control at 250 g/ha: 250 g ai/ha, read-out: Barnyardgrass damage rating (100=total damage to plant; 0=no damage to plant)
How it was run: as §1

[5] = system: ivy-leaved morning glory (Ipomoea hederacea); assay: Test G Pre-Emergence Protocol; settings: Ipomoea, pre-emergence, 312 h, evaluated after 13 days; for pest or weed control at 15.625 g/ha: 15.625 g ai/ha, read-out: Morning-glory, Ivy-leaved damage rating (100=total damage to plant; 0=no damage to plant); for pest or weed control at 62.5 g/ha: 62.5 g ai/ha, 100=total damage to plant, 0=no damage to plant, read-out: plant damage rating, Morningglory, Ivy-leaved; for pest or weed control at 250 g/ha: 250 g ai/ha, read-out: Morningglory, Ivy-leaved damage rating (100=total damage to plant; 0=no damage to plant)
How it was run: as §1

corn (Zea mays) [6] = assay: Test G Pre-Emergence Protocol; settings: Zea mays, pre-emergence, 312 h, evaluated after 13 days; for plant injury at 15.625 g/ha: 15.625 g ai/ha; for plant injury at 15.625 g/ha / plant injury at 250 g/ha: read-out: Corn damage rating (100=total damage to plant; 0=no damage to plant); for plant injury at 62.5 g/ha: 62.5 g ai/ha, 100=total damage to plant, 0=no damage to plant, read-out: plant damage rating, Corn; for plant injury at 250 g/ha: 250 g ai/ha
How it was run: as §1

[7] = system: velvetleaf (Abutilon theophrasti); assay: Test G Post-Emergence Protocol; settings: Abutilon theophrasti, post-emergence, 312 h; for pest or weed control at 15.625 g/ha: 15.625 g ai/ha, evaluated after 13 days (100=total damage to plant; 0=no damage to plant), read-out: Velvetleaf damage rating; for pest or weed control at 62.5 g/ha: 62.5 g ai/ha, read-out: Velvetleaf damage rating (100=total damage to plant; 0=no damage to plant); for pest or weed control at 62.5 g/ha / pest or weed control at 250 g/ha: evaluated after 13 days; for pest or weed control at 250 g/ha: 250 g ai/ha, read-out: damage to plant, Velvetleaf (100=total damage to plant; 0=no damage to plant)
How it was run: (§2)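 Eight days post-sowing, plants received a spray of test compound (acetone/water 50:50, 0.5% Tween 20) at 15.625, 62.5 or 250 g/ha. Glasshouse regime thereafter: 24/16 °C, 14 h light, 65% humidity. Assessment after 13 days on a 0–100 damage scale.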

[8] = system: giant foxtail (Setaria faberi); assay: Test G Post-Emergence Protocol; settings: Setaria faberi, post-emergence, 312 h; for pest or weed control at 15.625 g/ha: 15.625 g ai/ha, evaluated after 13 days (100=total damage to plant; 0=no damage to plant), read-out: Foxtail, Giant damage rating; for pest or weed control at 62.5 g/ha: 62.5 g ai/ha, read-out: Foxtail, Giant damage rating (100=total damage to plant; 0=no damage to plant); for pest or weed control at 62.5 g/ha / pest or weed control at 250 g/ha: evaluated after 13 days; for pest or weed control at 250 g/ha: 250 g ai/ha, read-out: damage to plant, Foxtail, Giant (100=total damage to plant; 0=no damage to plant)
How it was run: as §2

[9] = system: redroot pigweed (Amaranthus retroflexus); assay: Test G Post-Emergence Protocol; settings: Amaranthus retroflexus, post-emergence, 312 h; for pest or weed control at 15.625 g/ha: 15.625 g ai/ha, evaluated after 13 days (100=total damage to plant; 0=no damage to plant), read-out: Pigweed, Redroot damage rating; for pest or weed control at 62.5 g/ha: 62.5 g ai/ha, read-out: Pigweed, Redroot damage rating (100=total damage to plant; 0=no damage to plant); for pest or weed control at 62.5 g/ha / pest or weed control at 250 g/ha: evaluated after 13 days; for pest or weed control at 250 g/ha: 250 g ai/ha, read-out: damage to plant, Pigweed, Redroot (100=total damage to plant; 0=no damage to plant)
How it was run: as §2

[10] = system: barnyardgrass (Echinochloa crus-galli); assay: Test G Post-Emergence Protocol; settings: Echinochloa crus-galli, post-emergence, 312 h; for pest or weed control at 15.625 g/ha: 15.625 g ai/ha, evaluated after 13 days (100=total damage to plant; 0=no damage to plant), read-out: Barnyardgrass damage rating; for pest or weed control at 62.5 g/ha: 62.5 g ai/ha, read-out: Barnyardgrass damage rating (100=total damage to plant; 0=no damage to plant); for pest or weed control at 62.5 g/ha / pest or weed control at 250 g/ha: evaluated after 13 days; for pest or weed control at 250 g/ha: 250 g ai/ha, read-out: damage to plant, Barnyardgrass (100=total damage to plant; 0=no damage to plant)
How it was run: as §2

[11] = system: ivy-leaved morning glory (Ipomoea hederacea); assay: Test G Post-Emergence Protocol; settings: Ipomoea, post-emergence, 312 h; for pest or weed control at 15.625 g/ha: 15.625 g ai/ha, evaluated after 13 days (100=total damage to plant; 0=no damage to plant), read-out: Morningglory, Ivy-leaved damage rating; for pest or weed control at 62.5 g/ha: 62.5 g ai/ha, read-out: Morningglory, Ivy-leaved damage rating (100=total damage to plant; 0=no damage to plant); for pest or weed control at 62.5 g/ha / pest or weed control at 250 g/ha: evaluated after 13 days; for pest or weed control at 250 g/ha: 250 g ai/ha, read-out: damage to plant, Morningglory, Ivy-leaved (100=total damage to plant; 0=no damage to plant)
How it was run: as §2

corn (Zea mays) [12] = assay: Test G Post-Emergence Protocol; settings: Zea mays, post-emergence, 312 h; for plant injury at 15.625 g/ha: 15.625 g ai/ha, evaluated after 13 days (100=total damage to plant; 0=no damage to plant), read-out: Corn damage rating; for plant injury at 62.5 g/ha: 62.5 g ai/ha, read-out: Corn damage rating (100=total damage to plant; 0=no damage to plant); for plant injury at 62.5 g/ha / plant injury at 250 g/ha: evaluated after 13 days; for plant injury at 250 g/ha: 250 g ai/ha, read-out: damage to plant, Corn (100=total damage to plant; 0=no damage to plant)
How it was run: as §2

| Structure (SMILES) | pest or weed control at 15.625 g/ha [1] [%] | pest or weed control at 62.5 g/ha [1] [%] | pest or weed control at 250 g/ha [1] [%] | pest or weed control at 15.625 g/ha [2] [%] | pest or weed control at 62.5 g/ha [2] [%] | pest or weed control at 250 g/ha [2] [%] | pest or weed control at 15.625 g/ha [3] [%] | pest or weed control at 62.5 g/ha [3] [%] | pest or weed control at 250 g/ha [3] [%] | pest or weed control at 15.625 g/ha [4] [%] | pest or weed control at 62.5 g/ha [4] [%] | pest or weed control at 250 g/ha [4] [%] | pest or weed control at 15.625 g/ha [5] [%] | pest or weed control at 62.5 g/ha [5] [%] | pest or weed control at 250 g/ha [5] [%] | plant injury at 15.625 g/ha (corn (Zea mays) [6]) [%] | plant injury at 62.5 g/ha (corn (Zea mays) [6]) [%] | plant injury at 250 g/ha (corn (Zea mays) [6]) [%] | pest or weed control at 15.625 g/ha [7] [%] | pest or weed control at 62.5 g/ha [7] [%] | also measured |
| --- | --- | --- | --- | --- | --- | --- | --- | --- | --- | --- | --- | --- | --- | --- | --- | --- | --- | --- | --- | --- | --- |
| CN1C[C@@H](c2ccc(C(F)(F)F)cc2)[C@H](C(=O)Nc2ncc(Cl)s2)C1=O (racemic) [Compound 1569] | 0 | 0 | 0 | 0 | 0 | 0 | 0 | 0 | 0 | 0 | 0 | 0 | 0 | 0 | 0 | 0 | 0 | 0 | 0 | 0 | pest or weed control at 250 g/ha [7]: 0%; pest or weed control at 15.625 g/ha [8]: 0%; pest or weed control at 62.5 g/ha [8]: 0%; pest or weed control at 250 g/ha [8]: 0%; pest or weed control at 15.625 g/ha [9]: 0%; pest or weed control at 62.5 g/ha [9]: 0%; pest or weed control at 250 g/ha [9]: 0%; pest or weed control at 15.625 g/ha [10]: 0%; pest or weed control at 62.5 g/ha [10]: 10%; pest or weed control at 250 g/ha [10]: 20%; pest or weed control at 15.625 g/ha [11]: 0%; pest or weed control at 62.5 g/ha [11]: 0%; pest or weed control at 250 g/ha [11]: 0%; plant injury at 15.625 g/ha (corn (Zea mays) [12]): 0%; plant injury at 62.5 g/ha (corn (Zea mays) [12]): 0%; plant injury at 250 g/ha (corn (Zea mays) [12]): 0% |
| CN1C[C@@H](c2cncc(Cl)c2)[C@H](C(=O)Nc2cccc(F)c2F)C1=O (racemic) [Compound 1461] | 0 | 0 | 0 | 30 | 80 | 90 | 0 | 0 | 0 | 0 | 60 | 90 | 0 | 0 | 0 | 0 | 0 | 0 | 0 | 0 | pest or weed control at 250 g/ha [7]: 0%; pest or weed control at 15.625 g/ha [8]: 20%; pest or weed control at 62.5 g/ha [8]: 70%; pest or weed control at 250 g/ha [8]: 70%; pest or weed control at 15.625 g/ha [9]: 0%; pest or weed control at 62.5 g/ha [9]: 0%; pest or weed control at 250 g/ha [9]: 0%; pest or weed control at 15.625 g/ha [10]: 0%; pest or weed control at 62.5 g/ha [10]: 30%; pest or weed control at 250 g/ha [10]: 50%; pest or weed control at 15.625 g/ha [11]: 0%; pest or weed control at 62.5 g/ha [11]: 0%; pest or weed control at 250 g/ha [11]: 0%; plant injury at 15.625 g/ha (corn (Zea mays) [12]): 10%; plant injury at 62.5 g/ha (corn (Zea mays) [12]): 0%; plant injury at 250 g/ha (corn (Zea mays) [12]): 0% |
